Results: article PMC7067379, “Mapping the S1 and S1’ subsites of cysteine proteases with new dipeptidyl nitrile inhibitors as trypanocidal agents” (PLoS Neglected Tropical Diseases, 2020)
Where two headings read alike, the source gives them in different places.

Legend:
[1] = biological target: T1, Human recombinant cathepsin K (Homo sapiens, UniProt P43235); assay: Cathepsin K assay; format: biochemical; conditions: for Ki: SD lower than 15%, read-out: pKi CatK (converted); for remaining activity at 10 µM: read-out: remaining activity (%) at 10 μM, CatK
T1 sequence (P43235 115-329): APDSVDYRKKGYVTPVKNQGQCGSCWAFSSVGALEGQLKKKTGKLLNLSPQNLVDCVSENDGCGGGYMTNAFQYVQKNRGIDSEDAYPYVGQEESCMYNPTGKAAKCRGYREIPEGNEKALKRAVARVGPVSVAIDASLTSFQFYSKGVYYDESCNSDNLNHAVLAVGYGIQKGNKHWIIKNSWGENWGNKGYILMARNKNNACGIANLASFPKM
Procedure: Human recombinant cathepsin K was assayed on a FLUOSTAR Optima plate reader at 25 °C with an excitation wavelength of 360 nm and an emission wavelength of 440 nm on a 96 well plate. The enzyme solution (23 μg/mL in 50 mM sodium acetate pH 5.5, 50 mM NaCl, 0.5 mM EDTA, 5 mM DTT) was diluted 1:100 with assay buffer (100 mM sodium citrate buffer pH 5.0, 100 mM NaCl, 1 mM EDTA, 0.01% CHAPS) containing 5 mM DTT and was then incubated at 37 °C for 30 min for activation. A 1.5 mM stock solution of the substrate Z-Leu-Arg-AMC was prepared in DMSO. […] The assay was performed with a final concentration of cathepsin K of 1.73 ng/mL. Stock solutions of inhibitors were prepared in DMSO. The final DMSO concentration was 2% (4 μL). Into a well containing 194.5 μL assay buffer, 0.8 μL of the fluorogenic substrate, DMSO and inhibitor solution (3.2 μL) were added. Upon addition of cathepsin K (1.5 μL), the measurement was started and followed for 20 min.

[2] = biological target: Leishmania mexicana CPB (LmCPB) (Leishmania mexicana, UniProt P36400); assay: LmCPB enzyme inhibition; format: biochemical
Leishmania mexicana CPB (LmCPB), sequence (P36400 126-443): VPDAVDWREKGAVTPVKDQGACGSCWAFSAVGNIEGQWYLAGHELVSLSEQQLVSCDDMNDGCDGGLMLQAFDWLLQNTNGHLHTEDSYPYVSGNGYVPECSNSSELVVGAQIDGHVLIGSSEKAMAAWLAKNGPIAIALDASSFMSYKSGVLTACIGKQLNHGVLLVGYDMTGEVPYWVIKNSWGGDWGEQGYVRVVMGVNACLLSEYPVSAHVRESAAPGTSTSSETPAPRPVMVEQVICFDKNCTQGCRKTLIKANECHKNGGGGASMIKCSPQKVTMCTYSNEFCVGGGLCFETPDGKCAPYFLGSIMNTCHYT
Procedure: (§1) Enzyme inhibition studies for Cz and LmCPB were performed as previously described for Cz. The experimental procedures are described in the Supporting Information (see chapter S3). Cathepsins B, L, S were assayed as reported.

cathepsin L (CatL) = cathepsin L (CatL) (Homo sapiens, UniProt P07711); assay: Cathepsin L enzyme inhibition; format: biochemical; conditions: for Ki: SD lower than 15%, read-out: pKi CatL (converted); for difference in pKi, CatL: relative to compound 11, sign not given, direction by cell colour or wording
cathepsin L (CatL), sequence (P07711 114-333): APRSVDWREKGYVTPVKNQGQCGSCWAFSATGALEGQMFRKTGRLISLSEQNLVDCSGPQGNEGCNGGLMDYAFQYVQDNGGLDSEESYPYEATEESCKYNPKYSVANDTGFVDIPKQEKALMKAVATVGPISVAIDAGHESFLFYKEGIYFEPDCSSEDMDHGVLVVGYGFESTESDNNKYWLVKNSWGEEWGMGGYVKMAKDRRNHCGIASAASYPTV

cathepsin B (CatB) = cathepsin B (CatB) (Homo sapiens, UniProt P07858); assay: Cathepsin B enzyme inhibition; format: biochemical; conditions: for Ki: SD lower than 15%, read-out: pKi CatB (converted)
[3] = Mammalian cytotoxicity assay (MTT); format: cell-based; conditions: rhesus monkey, LLCMK2 cells;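 also: Read-out is absorbance at 570 nm of formazan taken up in DMSO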
Procedure: LLCMK2 cells were cultured in 96-well plates at a concentration of 5 x 10^4 cells/ml. After 48 h, the plates were washed twice with PBS and 200 μL RPMI medium was added with serial dilutions of the compounds and benznidazole (1.95 μM to 250 μM) in triplicate. After 72 h at 37 °C, the cytotoxic activity of the compounds was determined by the classical MTT [3- (4,5-dimethylthiazol-2-yl) -2,5-diphenyltetrazolium bromide] method. Briefly, 50 μL MTT dissolved in PBS (2.0 mg mL^-1) was added to each well and the plates were incubated for 4 h at 37 °C. The formed formazan crystals were dissolved with DMSO (50 μL/well) and the absorbance of the samples was measured by spectrophotometer at 570 nm after 30 min.

recombinant cruzain (Cz) = recombinant cruzain (Cz) (Trypanosoma cruzi, UniProt P25779); assay: Cruzain enzyme inhibition; format: biochemical
recombinant cruzain (Cz), sequence (P25779 123-337): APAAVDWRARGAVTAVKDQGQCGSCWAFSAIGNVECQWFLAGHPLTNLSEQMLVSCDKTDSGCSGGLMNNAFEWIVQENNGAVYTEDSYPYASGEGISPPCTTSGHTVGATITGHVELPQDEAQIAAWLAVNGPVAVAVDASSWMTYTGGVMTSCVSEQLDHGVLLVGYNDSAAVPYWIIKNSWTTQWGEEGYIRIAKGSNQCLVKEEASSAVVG
Procedure: as §1

[4] = test system: T. cruzi Tulahuen LacZ strain, intracellular amastigote forms; assay: In vitro trypanocidal activity on intracellular amastigote forms (Tulahuen strain); format: cell-based, Trypanosoma cruzi; conditions: for EC50: Trypanosoma cruzi, TULAHUEN; for SI (selective index): from EC50 (T. cruzi) and CC50 (LLCMK2)
Procedure: Cells were evaluated in 96-well plates. Cells from the LLCMK2 lineage were plated at a concentration of 5x10^4 cells mL^-1. Trypomastigote forms of the Tulahuen LacZ strain were added at a concentration of 5×10^5 parasites mL^-1 and placed in the incubator at 37°C with 5% CO2 for 24 h. After the incubation period, the trypomastigote forms present were removed by successive washes with PBS, remaining only as intracellular amastigote forms. Compounds were added at different concentrations (1.95 μM to 250 μM serial dilutions) and incubated for 72 h. At the end of this period, the substrate CPRG (chlorophenol red β-D-galactopyranoside, 400 μM in 0.3% Triton X-100, pH 7.4) was added. […] Benznidazole was used as a positive control in the same concentrations as the substances, and DMSO as a negative control. Compounds were solubilized in DMSO. The selectivity index (SI) was calculated using the formula: […]. All statistical analyses were done with the program GraphPad Prism v.5.

cathepsin S (CatS) = cathepsin S (CatS) (Homo sapiens, UniProt P25774); assay: Cathepsin S enzyme inhibition; format: biochemical; conditions: SD lower than 15%; read-out: pKi CatS (converted)
cathepsin S (CatS), sequence (P25774 115-331): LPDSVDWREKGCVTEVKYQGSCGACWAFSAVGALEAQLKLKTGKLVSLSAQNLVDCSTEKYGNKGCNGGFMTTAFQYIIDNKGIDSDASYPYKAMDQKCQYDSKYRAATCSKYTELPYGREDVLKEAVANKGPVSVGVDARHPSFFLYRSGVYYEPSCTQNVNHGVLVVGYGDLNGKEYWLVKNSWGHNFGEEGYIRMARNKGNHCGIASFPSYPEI
Procedure: as §1

[5] = SD lower than 15%, read-out: pKi LmCPB (converted)
[6] = S1 Table, maximum concentration used 250 µM, read-out: CC50
[7] = SD lower than 15%, read-out: pKi Cz (converted)
[8] = read-out: EC50 T. cruzi, S1 Table, maximum concentration used 250 µM
[9] = read-out: pEC50, T. cruzi amastigote form (converted), S1 Table
[10] = 10 μM, replicates = 2, n.i. = no inhibition observed at 10 μM
[11] = LLCMK2, 72 h, MTT, Table 2, read-out: CC50 cytotoxicity
[12] = 72 h, amastigote, Tulahuen strain, 72 h, Table 2, read-out: EC50 trypanocidal activity
[13] = S1 Table, maximum concentration used 250 µM, read-out: EC50 T. cruzi
[14] = T. cruzi amastigote form, S1 Table, read-out: pEC50 (converted)
[15] = relative to compound 11, sign not given, direction by cell colour or wording

| SMILES | Ki [1] [nM] | melting point [°C] | Ki [2, 5] [nM] | Ki (cathepsin L (CatL)) [nM] | Ki (cathepsin B (CatB)) [nM] | CC50 at 72 h [3, 6] [nM] | Ki (recombinant cruzain (Cz); [7]) [nM] | EC50 [4, 8] [nM] | EC50 [4, 9] [nM] | Ki (cathepsin S (CatS)) [nM] | CC50 at 72 h [3, 11] [nM] | SI (selective index) ([4]; Table 2) | EC50 [4, 13] [nM] | EC50 [4, 14] [nM] | further results |
| --- | --- | --- | --- | --- | --- | --- | --- | --- | --- | --- | --- | --- | --- | --- | --- |
| Cn1nc(C(C)(C)C)cc1C(=O)N[C@@H](Cc1cccc(Cl)c1)C(=O)NC1(C#N)CC1 [Compound 8, (S)-3-(tert-Butyl)-N-(3-(3-chlorophenyl)-1-((1-cyanocyclopropyl)amino)-1-oxopropan-2-yl)-1-methyl-1H-pyrazole-5-carboxamide] | 398 | 152 to 154 | 200 | 2.51 | 3980 | > 100000 | 39.8 | > 100000 | > 100000 | 200 | – | – | – | – | EC50 ([4]; amastigote forms of T. cruzi (Tuhaluen strain), Figs 12-14, unit inferred): > 100000 nM |
| C[C@@H](OCc1ccccc1)[C@H](NC(=O)c1cc(C(C)(C)C)nn1C)C(=O)NC1(C#N)CC1 [Compound 12, N-((2S,3R)-3-(Benzyloxy)-1-((1-cyanocyclopropyl)amino)-1-oxobutan-2-yl)-3-(tert-butyl)-1-methyl-1H-pyrazole-5-carboxamide] | – | 100 to 101 | 3160 | 1260 | 39800 | – | 7940 | – | 31600 | 1260 | > 100000 | > 3.1 | – | – | remaining activity at 10 µM [1, 10]: 96%; EC50 [4, 12]: 32700 ± 3860 nM |
| N#CC1(NC(=O)[C@H](Cc2ccccc2)NC(=O)c2ccnc3cc(Cl)ccc23)CC1 [Compound 13, (S)-7-Chloro-N-(1-((1-cyanocyclopropyl)amino)-1-oxo-3-phenylpropan-2-yl)quinoline-4-carboxamide] | – | 260 to 262 | – | 63.1 | 12600 | > 100000 | – | > 100000 | > 100000 | 200 | – | – | – | – | remaining activity at 10 µM [1, 10]: 81%; Ki [2]: 126 nM; Ki (recombinant cruzain (Cz)): 200 nM |
| N#CC1(NC(=O)[C@H](Cc2c[nH]c3ccccc23)NC(=O)c2ccnc3cc(Cl)ccc23)CC1 [Compound 14, (S)-7-Chloro-N-(1-((1-cyanocyclopropyl)amino)-3-(1H-indol-3-yl)-1-oxopropan-2-yl)quinoline-4-carboxamide] | – | 196 to 197 | 2000 | 2000 | 20000 | > 100000 | 631 | > 100000 | – | 1000 | – | – | – | – | remaining activity (%) at 10 μM, CatK [1, 10]: n.i.^c |
| CC(C)C[C@H](NC(=O)c1ccnc2cc(Cl)ccc12)C(=O)NC1(C#N)CC1 [Compound 15, (S)-7-Chloro-N-(1-((1-cyanocyclopropyl)amino)-4-methyl-1-oxopentan-2-yl)quinoline-4-carboxamide] | 126 | 169 to 170 | 50.1 | 251 | – | > 100000 | 15.8 | – | – | 126 | 73600 ± 8740 | 1.14 | 77300 | 79400 | difference in pKi, CatL (cathepsin L (CatL)): 1.0; remaining activity at 10 µM (cathepsin B (CatB); [10]): 89%; EC50 ([4]; 72 h, read-out: EC50 trypanocidal activity, amastigote, Tulahuen strain, 72 h, Table 2): 64700 ± 4320 nM |
| N#CC1(NC(=O)[C@H](Cc2ccccc2)NC(=O)c2cccc(OC(=O)c3ccccc3)c2)CC1 [Compound 16, (S)-3-((1-((1-Cyanocyclopropyl)amino)-1-oxo-3-phenylpropan-2-yl)carbamoyl)phenyl benzoate] | 631 | 185 to 187 | 100 | 501 | 6310 | – | 126 | – | – | 50.1 | > 100000 | > 2.1 | – | 50100 | EC50 [4, 12]: 47300 ± 3260 nM |
| CC(C)C[C@H](NC(=O)c1ccc(N)nc1)C(=O)NC1(C#N)CC1 [Compound 17, (S)-6-Amino-N-(1-((1-cyanocyclopropyl)amino)-4-methyl-1-oxopentan-2-yl)nicotinamide] | 10 | 100 to 101 | 158 | 316 | – | > 100000 | 79.4 | – | – | 25.1 | – | – | > 100000 | > 100000 | remaining activity (%) at 10 μM, CatB (cathepsin B (CatB); [10]): n.i.^c |
| CC(C)C[C@H](NC(=O)c1cnc2[nH]ccc2c1)C(=O)NC1(C#N)CC1 [Compound 18, (S)-N-(1-((1-Cyanocyclopropyl)amino)-4-methyl-1-oxopentan-2-yl)-1H-pyrrolo[2,3-b]pyridine-5-carboxamide] | 2 | 79 to 80 | – | 79.4 | 31600 | > 100000 | – | – | – | 50.1 | – | – | > 100000 | > 100000 | Ki [2]: 63.1 nM; difference in pKi, LmCPB [2, 15]: -0.5; Ki (recombinant cruzain (Cz)): 20 nM; difference in pKi, Cz (recombinant cruzain (Cz); [15]): -0.7 |
| C[C@@H](O)[C@H](NC(=O)c1cc(C(C)(C)C)nn1C)C(=O)NC1(C#N)CC1 [Compound 19, 3-(tert-Butyl)-N-((2S,3R)-1-((1-cyanocyclopropyl)amino)-3-hydroxy-1-oxobutan-2-yl)-1-methyl-1H-pyrazole-5-carboxamide] | 3160 | 201 to 202 | – | 6310 | 25100 | > 100000 | – | – | – | 10000 | – | – | > 100000 | > 100000 | remaining activity at 10 µM ([2]; 10 μM, replicates = 2): 67%; difference in pKi, CatL (cathepsin L (CatL)): 0.5; remaining activity at 10 µM (recombinant cruzain (Cz); 10 μM, replicates = 2): 51% |
